Activity, IC50 and EC50 data for two molecules are collected here from ChEMBL document CHEMBL1221256, “A mutant selective anti-estrogen is a pure antagonist on EREs and AP-1 response elements” (Bioorg Med Chem Lett, 2010).

Broadly, the IC50 is the point on the concentration scale where inhibition reaches its midpoint. Usually EC50 stands for the concentration giving half of the maximal effect.

Experiment [1] deals with T1, Estrogen receptor (Homo sapiens) (UniProt P03372).
T1 sequence (whole entry): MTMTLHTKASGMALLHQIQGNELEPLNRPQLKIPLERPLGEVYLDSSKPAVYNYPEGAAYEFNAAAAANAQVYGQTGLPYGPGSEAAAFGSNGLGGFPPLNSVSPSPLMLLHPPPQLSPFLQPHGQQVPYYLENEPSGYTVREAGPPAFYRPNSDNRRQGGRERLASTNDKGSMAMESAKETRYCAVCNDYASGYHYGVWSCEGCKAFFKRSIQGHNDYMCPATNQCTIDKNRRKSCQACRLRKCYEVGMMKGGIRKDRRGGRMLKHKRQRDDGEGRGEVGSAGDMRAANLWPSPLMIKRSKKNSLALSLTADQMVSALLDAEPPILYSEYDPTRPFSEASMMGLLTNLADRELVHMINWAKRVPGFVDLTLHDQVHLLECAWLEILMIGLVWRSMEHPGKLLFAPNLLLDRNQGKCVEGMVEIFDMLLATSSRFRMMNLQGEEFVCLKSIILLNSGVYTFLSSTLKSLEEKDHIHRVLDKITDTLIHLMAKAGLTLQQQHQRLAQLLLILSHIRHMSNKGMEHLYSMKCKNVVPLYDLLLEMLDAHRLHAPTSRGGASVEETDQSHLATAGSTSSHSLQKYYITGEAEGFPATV
In words: Agonist activity at human wild type ERalpha expressed in human HeLa cells co-expressing AP-1 assessed as transactivation activity by luciferase reporter gene assay. It counts as functional, cell-based.

For experiment [2], the system named is Estrogen receptor beta (Homo sapiens), Q92731 [E305A]. In words: Antagonist activity at human ERbeta E305A mutant expressed in human HeLa cells co-expressing AP-1 assessed as inhibition of transactivation activity at up to 10 uM by luciferase reporter gene assay. It counts as functional, cell-based.
The target in experiment [3] is Estrogen receptor (Homo sapiens, UniProt P03372, E353A).
The target of experiment [4] is T2, Estrogen receptor beta (Homo sapiens, UniProt Q92731).
Experiment [5] has as its target T3, Estrogen receptor (Homo sapiens, UniProt P03372).
T3 sequence (P03372 whole entry): T1 sequence (whole entry)

Experiment [6] deals with Estrogen receptor beta (Homo sapiens, UniProt Q92731, E305A).
The target in experiment [7] is T2, Estrogen receptor beta. The source holds these as a separate data set.
Description: Antagonist activity at human wild type ERbeta expressed in human HeLa cells co-expressing AP-1 assessed as inhibition of transactivation activity by luciferase reporter gene assay
Experiment [8] deals with T2, Estrogen receptor beta. This is another data set of the same source.

Calls of active or inactive are those of the source. The calls are words filed in the database; no cut-off is given here.

T2 sequence (Q92731 whole entry): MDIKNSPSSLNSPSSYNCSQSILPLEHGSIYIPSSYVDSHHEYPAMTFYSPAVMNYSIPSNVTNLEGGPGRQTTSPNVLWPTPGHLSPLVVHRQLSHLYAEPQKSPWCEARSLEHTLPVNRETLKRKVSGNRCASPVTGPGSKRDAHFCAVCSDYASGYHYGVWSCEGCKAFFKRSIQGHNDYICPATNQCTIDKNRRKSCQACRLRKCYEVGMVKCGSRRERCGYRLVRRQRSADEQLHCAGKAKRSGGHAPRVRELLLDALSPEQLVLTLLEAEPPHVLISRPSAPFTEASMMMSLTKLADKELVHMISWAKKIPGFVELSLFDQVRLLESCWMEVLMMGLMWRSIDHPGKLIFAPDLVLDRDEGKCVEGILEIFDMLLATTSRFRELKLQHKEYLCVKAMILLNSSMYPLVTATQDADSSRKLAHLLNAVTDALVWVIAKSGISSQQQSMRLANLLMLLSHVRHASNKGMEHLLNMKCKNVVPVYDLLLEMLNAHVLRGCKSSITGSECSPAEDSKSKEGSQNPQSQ
Estrogen receptor beta (Homo sapiens, UniProt Q92731, E305A), sequence (Q92731 whole entry E305A): as the sequence (Q92731 whole entry) above, with E305A counted along it
Estrogen receptor beta (Homo sapiens), Q92731 [E305A], sequence (Q92731 whole entry E305A): as the sequence (Q92731 whole entry) above, with E305A counted along it
Estrogen receptor (Homo sapiens, UniProt P03372, E353A), sequence (P03372 whole entry E353A): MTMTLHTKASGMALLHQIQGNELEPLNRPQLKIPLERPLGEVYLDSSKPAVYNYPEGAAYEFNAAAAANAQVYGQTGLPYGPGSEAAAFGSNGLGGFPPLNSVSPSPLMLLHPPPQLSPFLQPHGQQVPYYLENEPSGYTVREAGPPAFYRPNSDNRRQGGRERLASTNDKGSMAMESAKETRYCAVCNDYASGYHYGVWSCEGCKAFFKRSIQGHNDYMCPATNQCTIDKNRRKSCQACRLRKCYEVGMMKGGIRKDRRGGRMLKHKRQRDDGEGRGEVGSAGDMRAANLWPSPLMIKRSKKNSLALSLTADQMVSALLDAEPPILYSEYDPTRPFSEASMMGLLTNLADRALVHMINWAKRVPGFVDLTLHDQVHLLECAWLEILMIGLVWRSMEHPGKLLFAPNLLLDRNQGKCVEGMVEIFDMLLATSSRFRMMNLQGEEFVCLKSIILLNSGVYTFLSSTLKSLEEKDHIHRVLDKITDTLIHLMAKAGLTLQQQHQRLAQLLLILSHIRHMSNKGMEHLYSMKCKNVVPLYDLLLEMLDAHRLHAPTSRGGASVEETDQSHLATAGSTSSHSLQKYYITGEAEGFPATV

For `CCCCN(C)C(=O)CCCCCCCCCC[C@@H]1Cc2cc(O)ccc2[C@H]2CC[C@]3(C)[C@@H](O)CC[C@H]3[C@H]12`, the result in experiment [1] was Active.
Consider `O=C(O)/C=C/c1ccc2c(C(=O)c3ccc(OCCN4CCCCC4)cc3)c(-c3ccc(O)cc3)sc2c1`, for which, in experiment [2], the result was inactive. Also, the IC50 is 212 nM in experiment [3]; above 10000 nM in experiment [4]; 82 nM in experiment [5]; above 10000 nM in experiment [6]; 104 nM in experiment [8]. In addition, the EC50 in experiment [7] worked out at 150 nM.
